# From patent US8263083B2, “Combination therapy with antibody-drug conjugates” (priority 2007, dated 2012)
# Like-named read-outs stand apart in the source and are kept apart here.
# How the values were obtained:
# L540cy HL tumors = assay: Antitumor activity on subcutaneous L540cy HL tumors in SCID mice; assay type: in vivo; conditions: for Median TGD (FIG. 6) (days to triple): Vinblastine q4dx3
# Protocol: (§1) SCID mice were implanted with L540cy HL cells in the right flank.
# as §1
# (§2) SCID mice were implanted with L540cy HL cells in the right flank. Groups of mice (5-10/group) were untreated or received cAC10-vcMMAE (1 mg/kg, q4dx3, ip) alone, Gemcitabine (120 mg/kg, q4dx3, ip) alone, or combination treatment with cAC10-vcMMAE and Gemcitabine when tumor sizes averaged approximately 100 mm^3.
# as §2, with “and Gemcitabine,” for “and Gemcitabine”, “approximately 300” for “approximately 100”
# as §1, §1
# (§3) SCID mice were implanted with L540cy HL cells in the right flank. Groups of mice (5-10/group) were untreated or received cAC10-vcMMAE (1 mg/kg, q4dx3, ip) alone, Vinorelbine alone (4 mg/kg q5dx3), or combination treatment cAC10-vcMMAE and vinorelbine when tumor sizes averaged approximately 100 mm^3.
# as §3
# as §3, with “Doxorubicin” for “Vinorelbine”, “(3” for “(4”, “q4dx3),” for “q5dx3),”, “treatment with” for “treatment”, “doxorubicin” for “vinorelbine”
# as §3, with “Doxorubicin” for “Vinorelbine”, “(1.5” for “(4”, “q4dx3),” for “q5dx3),”, “treatment with” for “treatment”, “doxorubicin” for “vinorelbine”
# SCID mice were implanted with L540cy HL cells in the right flank. Groups of mice (7-10/group) were untreated or received cAC10-vcMMAE (1 mg/kg, q4dx3, ip) alone, Vinblastine alone ([…] q4dx3), or combination treatment with cAC10-vcMMAE and vinblastine when tumor sizes averaged approximately 300 mm^3.
# as §2, with “(6-8/group)” for “(5-10/group)”
# as §1
# [1] = system: relapsed or refractory HL; conditions: cited from earlier work
# [2] = ~100 mm^3, cAC10-vcMMAE 1 mg/kg q4dx3 ip, Gemcitabine 120 mg/kg q4dx3 ip
# [3] = ~300 mm^3, cAC10-vcMMAE 1 mg/kg q4dx3 ip, Gemcitabine 120 mg/kg q4dx3 ip
# [4] = FIG. 4A, first experiment, ~100 mm^3, cAC10-vcMMAE 1 mg/kg q4dx3 ip, Vinorelbine 4 mg/kg q5dx3
# [5] = FIG. 4B, second experiment, ~100 mm^3, cAC10-vcMMAE 1 mg/kg q4dx3 ip, Vinorelbine 4 mg/kg q5dx3
# [6] = FIG. 5A, first experiment, ~100 mm^3, cAC10-vcMMAE 1 mg/kg q4dx3 ip, Doxorubicin 3 mg/kg q4dx3
# [7] = FIG. 5B, second experiment, ~100 mm^3, cAC10-vcMMAE 1 mg/kg q4dx3 ip, Doxorubicin 1.5 mg/kg q4dx3
# [8] = FIG. 6, ~300 mm^3, cAC10-vcMMAE 1 mg/kg q4dx3 ip, Vinblastine 0/1 mg/kg q4dx3
# [9] = FIG. 6, ~300 mm^3, cAC10-vcMMAE 1 mg/kg q4dx3 ip
# [10] = FIG. 7, second study, ~100 mm^3, cAC10-vcMMAE 1 mg/kg q4dx3 ip, Gemcitabine 120 mg/kg q4dx3 ip
Compound,Median TGD (FIG. 2A) (days to quadruple) (L540cy HL tumors; [2]) [days],Median TGD (FIG. 2B) (days to triplicate) (L540cy HL tumors; [3]) [days],Median TGD (FIG. 4A) (days to quadruple) (L540cy HL tumors; [4]) [days],"durable responses, animals/group (L540cy HL tumors; [4])",Median TGD (FIG. 4B) (days to quadruple) (L540cy HL tumors; [5]) [days],"durable responses, animals/group (L540cy HL tumors; [5])",Median TGD (FIG. 5A) (days to quadruple) (L540cy HL tumors; [6]) [days],"durable responses, animals/group (L540cy HL tumors; [6])",Median TGD (FIG. 5B) (days to quadruple) (L540cy HL tumors; [7]) [days],"durable responses, animals/group (L540cy HL tumors; [7])","durable responses, animals/group (L540cy HL tumors; [8])",Median TGD (FIG. 6) (days to triple) (L540cy HL tumors; [9]) [days],Median TGD (FIG. 7) (days to quadruple) (L540cy HL tumors; [10]) [days],"durable responses, animals/group (L540cy HL tumors; [10])",further results
cAC10-vcMMAE: antibody-drug conjugate: chimeric AC10 anti-CD30 antibody linked via MC-val-cit-PAB to monomethyl auristatin E,34,39.5,64,1/6,78.8,4/10,64,1/6,78.8,4/10,1/8,45.9,78.01,1/7,"effect on tumors compared to control treatment (L540cy HL tumors; FIG. 1A, monotherapy, tumors eventually progressed): induced tumor regressions and significant tumor growth delays; Median TGD (FIG. 1A) (days to quadruple) (L540cy HL tumors; FIG. 1A, treatment started at tumor size ~100 mm^3, cAC10-vcMMAE 1 mg/kg q4dx3 ip, ABVD: Adriamycin 1 mg/kg q4dx3 iv, Bleomycin 7.5 u/kg q4dx3 ip, Vinblastine 0.015 mg/kg q4dx3 ip, Dacarbazine 20 mg/kg q3dx4 ip): 63 days; durable responses (durable tumor regressions; absence of palpable tumor), animals/group (L540cy HL tumors; FIG. 1A, ~100 mm^3, cAC10-vcMMAE 1 mg/kg q4dx3 ip, ABVD full dose): 4/9; Median TGD (FIG. 1B) (days to triple) (L540cy HL tumors; FIG. 1B, treatment started at ~300 mm^3, cAC10-vcMMAE 1 mg/kg q4dx3 ip, ABVD: Adriamycin 0.75 mg/kg q4dx3 iv, Bleomycin 6 u/kg q4dx3 ip, Vinblastine 0.01 mg/kg q4dx3 ip, Dacarbazine 15 mg/kg q3dx4 ip): 41 days; durable responses, animals/group (L540cy HL tumors; FIG. 1B, ~300 mm^3, cAC10-vcMMAE 1 mg/kg q4dx3 ip, ABVD dosages reduced by 25%): 2/10; durable responses, animals/group (L540cy HL tumors; FIG. 3A, first experiment, ~100 mm^3, cAC10-vcMMAE 1 mg/kg q4dx3 ip, GVD): 4/9; Median TGD (FIG. 3A) (days to quadruple) (L540cy HL tumors; FIG. 3A, first experiment, ~100 mm^3, cAC10-vcMMAE 1 mg/kg q4dx3 ip, GVD: gemcitabine 60 mg/kg q4dx3 ip, vinorelbine 2 mg/kg q5dx3 ip, doxorubicin 1.5 mg/kg q4dx3 iv): 84.6 days; durable responses, animals/group (L540cy HL tumors; FIG. 3B, second experiment, ~100 mm^3, cAC10-vcMMAE 1 mg/kg q4dx3 ip, GVD): 0/7; Median TGD (FIG. 3B) (days to quadruple) (L540cy HL tumors; FIG. 3B, second experiment, ~100 mm^3, cAC10-vcMMAE 1 mg/kg q4dx3 ip, GVD: gemcitabine 60 mg/kg q4dx3 ip, vinorelbine 2 mg/kg q5dx3 ip, doxorubicin 1.5 mg/kg q4dx3 iv): 54.7 days"
"COc1cccc2c1C(=O)c1c(O)c3c(c(O)c1C2=O)C[C@@](O)(C(=O)CO)C[C@@H]3O[C@H]1C[C@H](N)[C@H](O)[C@H](C)O1 [Doxorubicin, reference compound]",,,,,,,32,0/3,27.2,0/9,,,,,
"CC[C@]1(O)C[C@@H]2CN(CCc3c([nH]c4ccccc34)[C@@](C(=O)OC)(c3cc4c(cc3OC)N(C)[C@H]3[C@@](O)(C(=O)OC)[C@H](OC(C)=O)[C@]5(CC)C=CCN6CC[C@]43[C@@H]65)C2)C1 [Vinblastine, reference compound]",,,,,,,,,,,0/10,30.93,,,
"Nc1ccn([C@@H]2O[C@H](CO)[C@@H](O)C2(F)F)c(=O)n1 [Gemcitabine, 4-amino-1-[(2R,4R,5R)-3,3-difluoro-4-hydroxy-5-(hydroxymethyl)oxolan-2-yl]pyrimidin-2-one, reference compound]",5,15.5,,,,,,,,,,,42,1/6,"response rates ([1]; relapsed/refractory setting, majority of patients with prior autologous or allogeneic transplant, Venkatesh et al. 2004): 22%; response rates ([1]; transplant naive setting, relapsed or refractory HL patients, Santoro et al. 2000): 39%; durable responses, animals/group (L540cy HL tumors; FIG. 8, at day 51, experiment not yet complete, ~100 mm^3, cAC10-mcMMAF 1 mg/kg q4dx3 ip, Gemcitabine 120 mg/kg q4dx3 ip): 0/10"
"CCC1=C[C@@H]2CN(C1)Cc1c([nH]c3ccccc13)[C@@](C(=O)OC)(c1cc3c(cc1OC)N(C)[C@H]1[C@@](O)(C(=O)OC)[C@H](OC(C)=O)[C@]4(CC)C=CCN5CC[C@]31[C@@H]54)C2 [Vinorelbine, reference compound]",,,28,0/6,34.4,0/9,,,,,,,,,
